The values that follow come from PMC9786614, “Nerve Targeting via Myelin Protein Zero and the Impact of Dimerization on Binding Affinity” (Molecules, 2022).

Starred links: 1 amine or outer side, 2 acyl side, 3 side chain; linkers in the order of their positions; H or OH if unused. Positions of bridges follow the written chain, without caps; N, C: chain ends. Chains are numbered I, II in the order given. X1 = CC1(C)C(/C=C/C=C/C=C2/N(CCCCCC(=O)NCCN3C(=O)CC([*:1])C3=O)c3ccc(S(=O)(=O)O)cc3C2(C)C)=[N+](CCCCCC(=O)NCCN2C(=O)CC([*:2])C2=O)c2ccc(S(=O)(=O)[O-])cc21

Assay in data set [1]: not given
The source holds these as a separate data set.

Assay in data set [2]: not given
The source holds these as a separate data set.

Assay in data set [3]: not given
The source holds these as a separate data set.

Data set [4] deals with RT4-D12 Schwannoma cells. In words: Flow cytometry quantification of fluorescence signal intensity per tracer concentration. It counts as cell-based. How it is done:
Flow cytometric analysis was performed using RT4-D12 Schwannoma cells after incubation with either Cy5-P0_101–125 or Cy5-(P0_101–125)2. For saturation binding experiments, Cy5-labelled peptides were added to the cell samples in a range of 0–2000 nM in 50 µL of 0.1% bovine serum albumin (BSA) in PBS, as previously described. After 1 h of incubation at 4 °C, the cells were washed two times with 300 µL of 0.1% BSA in PBS and re-suspended in 300 µL of 0.1% BSA. Cells were gated on Forward Scatter and Side Scatter, and a minimum of 10,000 viable cells were analyzed per sample. All experiments were performed in triplicate.
For evaluation of the differences in signal intensity per concentration between Cy5-P0_101–125 and Cy5-(P0_101–125)2 (5–1000 nM), the mean signal intensity of Cy5-P0_101–125 at 1000nM was set at 100%, and intensities measured at other tracer concentrations or for Cy5-(P0_101–125)2 were calculated as % increase or decrease from this point. The KD values of the evaluated peptides were calculated using the “Binding-Saturation, One site—Total” nonlinear regression equation, as described previously.
A general note: Flow cytometry measures light scatter and fluorescence of single cells or particles in a stream.

For data set [5], the system named is RT4-D12 Schwannoma cells. In words: Fluorescence confocal microscopy of P0 staining. The class given is cell-based. The note with it: 1 h at 4 °C. Here is the method:
RT4-D12 Schwannoma cells were trypsinized and seeded onto 35 mm culture dishes that contained a glass insert (MatTek co, Emu Plains, New South Wales, Australia) two days prior to the imaging experiment. Then, 0.5–1000 nM Cy5-P0_101–125 or Cy5-(P0_101–125)2 was added one hour prior to imaging (incubation at 4 °C; n = 3 per tracer). Peptide solutions were sonicated for 20 s prior to addition to prevent aggregation of the peptide in solution. Lysotracker (lysotracker green; 2 µL/mL DND-26, Thermo Fisher, Waltham, MA, USA) and Hoechst (33,342, 1 mg/mL, 1:500, Thermo Fisher) were added to the to provide staining of lysosomes and the nucleus, respectively.
Images were acquired following Cy5 excitation at 633 nm. Emission was collected between 650–700 nm. For visualization of the lysosomes in the cells, a 488 nm laser was used for excitation, while emission was collected between 500–550 nm. Hoechst was excited at 405 nm, and emission was collected between 410–460 nm. Fluorescence confocal images were acquired using a Leica SP8 WL at sequential settings and 63× magnification. Image analysis was performed using Leica Confocal Software (Leica Microsystems). Semi-quantitative analysis of the Cy5 signal intensity was performed using the quantification tool in Fiji software according to previously described methods.

The subject of the next data set is serum protein. In words: Serum protein binding. The class given is in vitro ADME. To be noted: serum; protocol modified from Hensbergen et al. [34]; mean ± spread. How it is done:
(§1) The molar extinction coefficient (ε), quantum yield (QY), brightness, lipophilicity, serum protein binding, photo- and chemical stability, and stacking behavior were determined according to a slight modification of the protocol put forward by Hensbergen et al.. Sulfonate-(SO3)Cy5(SO3)-COOH [27] was measured and used as a control for QY.

The nature of the next data set: Lipophilicity logP(o/w). The class given is physicochemical. The note with it: octanol/water; protocol modified from Hensbergen et al. [34]; mean ± spread. How it is done: as §1
Data set [6] is described as follows: Stability towards glutathione. The class given is physicochemical. How it is done:
For the stability towards glutathione, which is used as a measure of stability towards thiols and amines in vivo, 125 µL of a 2 mM solution of the compound in (0.1 M HEPES pH 7.4, pre-sparged with N2) was added to 125 µL of a 4 mM solution of reduced glutathione in 0.1M HEPES pH 7.4 (pre-sparged with N2). The solutions were mixed and then placed in a sample manager. A sample was analyzed at 37 degrees over 6 h in total to determine the amount of compound relative to t = 0.

A short description of data set [7]: Photostability (photobleaching). It counts as physicochemical. The note with it: illumination in 5 min cycles, 30 min in total, Storz D-Light P system at 50 mm, fluorescence read-out. How it is done:
as §1
For photostability measurements, the cuvettes were sealed and illuminated for 5 min (30 min in total) by a modified Storz D-Light P fluorescence imaging system at a distance of 50 mm in a dark environment. After each illumination cycle, the fluorescence intensity was determined.

Assay in data set [8]: not given
The source holds these as a separate data set.

Turning to “I: Ac-KNPPDIVGKTSQVTLYVFEKVPTRYC-NH2 / II: Ac-KNPPDIVGKTSQVTLYVFEKVPTRYC-NH2 (linker I:26-II:26 via X1) [Cy5-(P0_101–125)2]”, the stokes shift was determined as 17 nm. This substance also showed a λEm in H2O/PBS in data set [1] of 671 nm. Further, the λex in H2O/PBS in [2] amounted to 654 nm. This substance displayed a Brightness in PBS in data set [3] of 49.2 M⁻¹ cm⁻¹. For the same substance, the “fold increase in staining efficiency compared to Cy5-P0_101–125” value in the data set on RT4-D12 Schwannoma cells [4] (P0 expressing Schwannoma cells, equal staining at 4-fold lower concentration) is ~4 fold. Further, the “higher fluorescence signal intensity compared to Cy5-P0_101–125 at the same concentration, range” value with RT4-D12 Schwannoma cells [4] (flow cytometry, tracer 5–1000 nM, RT4-D12 cells) is 34–59%. The “higher fluorescence signal intensity compared to Cy5-P0_101–125 at the same concentration, average” value with RT4-D12 Schwannoma cells [4] (flow cytometry, tracer 5–1000 nM, RT4-D12 cells, p < 0.00001) was 44%. In addition, the “P0-related staining at 100 nM tracer” value in the data set with RT4-D12 Schwannoma cells [5] is listed as “cells could be clearly discriminated”. In addition, the fraction unbound – broadly, the share of the substance not bound to proteins or other matrix – in the data set on serum protein was 0.37. Moreover, in “Lipophilicity logP(o/w)”, the logP (usually the decadic logarithm of the partition coefficient of the neutral form, usually between octanol and water) is -0.57 ± 0.01. Further, the share remaining (usually what is left of the initial amount, in per cent) at 6 h, 1 mM in data set [6] (HEPES buffer with reduced glutathione, 2 mM compound mixed 1:1 with 4 mM reduced glutathione, 0.1 M HEPES pH 7.4 (N2 sparged), 37 degrees, amount relative to t = 0) is 96%. In data set [6] (reduced glutathione, 0.1 M HEPES pH 7.4, 37 degrees, 6 h), the “degradation in glutathione stability test” value was 4%. Further, in data set [7], the “Photobleaching, %” value was 71%. The substance also showed a loss of fluorescence intensity with temperature increase in data set [8] of 65%.
